Legend:
Type in all cases: cell-based
[1] = tested on: standard bacterial inoculum; experiment: Preservation of coating composition B, repeated bacterial inoculation, streak evaluation
Experimental: The biocides shown in Table XI below were added respectively to 50 g of coating composition A. The stated amounts of biocide refer to the amount of coating composition A. In the MIT/BIT mixtures, the two biocides were present in a weight ratio of 1:1.
Apart from a blank test without addition of biocide, 1 mL of a standard bacterial inoculum that contained the following bacterial strains was added to each sample of coating composition A:
The cell density of the inoculum was 10^10 to 3·10^10 cells/mL, and the cell density of the samples was 2·10^8 to 6·10^8 cells/g. The samples were held at 30° C. for 7 days. Then a streak of each sample was produced on a nutrient agar plate, held at 30° C. for 48 h, and then evaluated for bacterial growth. The following evaluation scale was used:
When the bacterial growth was evaluated as below 6, a second bacterial inoculum of the above-mentioned type was added to the corresponding original 50 g sample and it was again held at 30° C. for 7 days. Then a streak was again produced on a nutrient agar plate, which was again evaluated for its bacterial growth after a holding time of 48 h at 30° C.
When the bacterial growth of the streak was evaluated as 6 for a sample, the testing of this sample was terminated. As long as a sample had not reached this number, a bacterial inoculum was again added in the above-mentioned manner and the sample was held and tested by means of a streak. This procedure was repeated as necessary, with a maximum of 4 bacterial inocula being added per sample.
Example 9 was repeated, but using coating composition B instead of coating composition A.
Coating composition B is a particularly low-emission plaster based on a polymer dispersion commercially available under the designation “Granol KR 3.0 LF” (company Steinwerke Kupferdreh GmbH).

Klebsiella pneumoniae = experiment: MIC and synergy of MIT and BIT in Müller-Hinton broth, 72 h; conditions: for growth of the microorganism: MIT ppm = row head c0; on growth of the microorganism: key: growth of the microorganism took place (symbol '+'); or not (symbol '−')
Experimental: (§1) The synergy index is calculated according to the method of F. C. Kull et al., Applied Microbiology, Vol. 9 (1961), p. 538. Here the synergy index is calculated using the following formula:
(§2) Synergy index SI=Qa/QA+Qb/QB.
The synergy of the two active substances MIT and BIT against the microorganism Klebsiella pneumoniae is shown as in example 1.
The test batches again contained a Müller-Hinton broth as a nutrient medium. The cell density was 10^6 cells/mL. The incubation time was 72 h at 25° C. Each sample was incubated on an incubation shaker at 120 rpm.

Pseudomonas aeruginosa = experiment: MIC and synergy of MIT and BIT in Müller-Hinton broth, 48 h; conditions: for growth of the microorganism: MIT ppm = row head c0; on growth of the microorganism: key: growth of the microorganism took place (symbol '+'); or not (symbol '−')
Experimental: as §1, §2
The synergy of the two active substances MIT and BIT against the microorganism Pseudomonas aeruginosa is shown as in Example 1.
(§3) The test batches again contained a Müller-Hinton broth as a nutrient medium. The cell density was 10^6 cells/mL. The incubation time was 48 h at 25° C. Each sample was incubated on an incubation shaker at 120 rpm.

Aspergillus niger = experiment: MIC and synergy of MIT and BIT in Sabouraud maltose broth, 96 h; conditions: for growth of the microorganism: MIT ppm = row head c0; on growth of the microorganism: key: growth of the microorganism took place (symbol '+'); or not (symbol '−')
Experimental: as §1, §2
The synergy of the two active substances MIT and BIT against the microorganism Aspergillus niger is shown as in Example 1.
(§4) The test batches contained a Sabouraud maltose broth as a nutrient medium. The spore concentration was 10^6 per mL. The incubation time was 96 h at 25° C. Each sample was incubated on an incubation shaker at 120 rpm.

Pseudomonas putida = experiment: MIC and synergy of MIT and BIT in Müller-Hinton broth, 48 h; conditions: for growth of the microorganism: MIT ppm = row head c0; on growth of the microorganism: key: growth of the microorganism took place (symbol '+'); or not (symbol '−')
Experimental: as §1, §2
The synergy of the two active substances MIT and BIT against the microorganism Pseudomonas putida is shown as in Example 1.
as §3

Penicillium funiculosum = experiment: MIC and synergy of MIT and BIT in Sabouraud maltose broth, 96 h; conditions: for growth of the microorganism: MIT ppm = row head c0
Experimental: as §1, §2
The synergy of the two active substances MIT and BIT against the microorganism Penicillium funiculosum is shown as in Example 1.
as §4

[2] = BIT share of the BIT/MIT mixture at MIC, 48 h
[3] = share of the BIT/MIT mixture at MIC, 96 h

SMILES: O=c1[nH]sc2ccccc12 [BIT, 1,2-benzisothiazolin-3-one]
- bacterial attack ([1]; all tested concentrations 0.005-0.03% by wt): complete bacterial attack could be observed after the third inoculation at the latest
- Bacterial growth (7 days + 48 h after 4th inoculation) ([1]; biocide 0.005% by wt): (Growth already after 1st inoculation)
- Bacterial growth (7 days + 48 h after 4th inoculation) ([1]; biocide 0.01% by wt): (Growth already after #^st inoculation)
- Bacterial growth (7 days + 48 h after 4th inoculation) ([1]; biocide 0.015% by wt): (Growth already after 2nd inoculation)
- Bacterial growth (7 days + 48 h after 4th inoculation) ([1]; biocide 0.02% by wt): (Growth already after 2nd inoculation)
- Bacterial growth (7 days + 48 h after 4th inoculation) ([1]; biocide 0.03% by wt): (Growth already after 3rd inoculation)
- MIC at Total concentration BIT + MIT Qa + Qb (Klebsiella pneumoniae; 72 h): 25 ppm
- Qa/QA (Klebsiella pneumoniae; 72 h): 1.00
- Synergy index Qa/QA + Qb/QB (Klebsiella pneumoniae; 72 h): 1.00
- growth of the microorganism (Klebsiella pneumoniae; BIT 1 ppm, 72 h): +
- growth of the microorganism (Klebsiella pneumoniae; BIT 2.5 ppm, 72 h): +
- growth of the microorganism (Klebsiella pneumoniae; BIT 5 ppm, 72 h): +
- growth of the microorganism (Klebsiella pneumoniae; BIT 7.5 ppm, 72 h): +
- growth of the microorganism (Klebsiella pneumoniae; BIT 10 ppm, 72 h): +
- growth of the microorganism (Klebsiella pneumoniae; BIT 15 ppm, 72 h): +
- growth of the microorganism (Klebsiella pneumoniae; BIT 20 ppm, 72 h): +
- growth of the microorganism (Klebsiella pneumoniae; BIT 25 ppm, 72 h): −
- growth of the microorganism (Klebsiella pneumoniae; BIT 30 ppm, 72 h): −
- growth of the microorganism (Klebsiella pneumoniae; BIT 35 ppm, 72 h): −
- MIC at BIT concentration Qa (Klebsiella pneumoniae; BIT share of the BIT/MIT mixture at MIC, 72 h): 25 ppm
- MIC value (Klebsiella pneumoniae; used alone, 72 h at 25° C.): 25 ppm
- MIC at Total concentration BIT + MIT Qa + Qb (Pseudomonas aeruginosa; 48 h): 150 ppm
- Qa/QA (Pseudomonas aeruginosa; 48 h): 1.00
- Synergy index Qa/QA + Qb/QB (Pseudomonas aeruginosa; 48 h): 1.00
- growth of the microorganism (Pseudomonas aeruginosa; BIT 5 ppm, 48 h): +
- growth of the microorganism (Pseudomonas aeruginosa; BIT 10 ppm, 48 h): +
- growth of the microorganism (Pseudomonas aeruginosa; BIT 25 ppm, 48 h): +
- growth of the microorganism (Pseudomonas aeruginosa; BIT 50 ppm, 48 h): +
- growth of the microorganism (Pseudomonas aeruginosa; BIT 75 ppm, 48 h): +
- growth of the microorganism (Pseudomonas aeruginosa; BIT 100 ppm, 48 h): +
- growth of the microorganism (Pseudomonas aeruginosa; BIT 125 ppm, 48 h): +
- growth of the microorganism (Pseudomonas aeruginosa; BIT 150 ppm, 48 h): −
- growth of the microorganism (Pseudomonas aeruginosa; BIT 175 ppm, 48 h): −
- growth of the microorganism (Pseudomonas aeruginosa; BIT 200 ppm, 48 h): −
- MIC at BIT concentration Qa (Pseudomonas aeruginosa; [2]): 150 ppm
- MIC value (Pseudomonas aeruginosa; used alone, 48 h at 25° C.): 150 ppm
- MIC at Total concentration BIT + MIT Qa + Qb (Aspergillus niger; 96 h): 750 ppm
- Qa/QA (Aspergillus niger; 96 h): 1.00
- Synergy index Qa/QA + Qb/QB (Aspergillus niger; 96 h): 1.00
- growth of the microorganism (Aspergillus niger; BIT 5 ppm, 96 h): +
- growth of the microorganism (Aspergillus niger; BIT 10 ppm, 96 h): +
- growth of the microorganism (Aspergillus niger; BIT 25 ppm, 96 h): +
- growth of the microorganism (Aspergillus niger; BIT 50 ppm, 96 h): +
- growth of the microorganism (Aspergillus niger; BIT 75 ppm, 96 h): +
- growth of the microorganism (Aspergillus niger; BIT 100 ppm, 96 h): −
- growth of the microorganism (Aspergillus niger; BIT 150 ppm, 96 h): −
- MIC at BIT concentration Qa (Aspergillus niger; [3]): 750 ppm
- MIC value (Aspergillus niger; used alone, 96 h at 25° C.): 100 ppm
- MIC at Total concentration BIT + MIT Qa + Qb (Pseudomonas putida; 48 h): 60 ppm
- Qa/QA (Pseudomonas putida; 48 h): 1.00
- Synergy index Qa/QA + Qb/QB (Pseudomonas putida; 48 h): 1.00
- growth of the microorganism (Pseudomonas putida; BIT 0.5 ppm, 48 h): +
- growth of the microorganism (Pseudomonas putida; BIT 1 ppm, 48 h): +
- growth of the microorganism (Pseudomonas putida; BIT 2.5 ppm, 48 h): +
- growth of the microorganism (Pseudomonas putida; BIT 5 ppm, 48 h): +
- growth of the microorganism (Pseudomonas putida; BIT 7.5 ppm, 48 h): +
- growth of the microorganism (Pseudomonas putida; BIT 10 ppm, 48 h): +
- growth of the microorganism (Pseudomonas putida; BIT 15 ppm, 48 h): +
- growth of the microorganism (Pseudomonas putida; BIT 20 ppm, 48 h): +
- growth of the microorganism (Pseudomonas putida; BIT 25 ppm, 48 h): +
- growth of the microorganism (Pseudomonas putida; BIT 30 ppm, 48 h): +
- growth of the microorganism (Pseudomonas putida; BIT 40 ppm, 48 h): +
- growth of the microorganism (Pseudomonas putida; BIT 50 ppm, 48 h): +
- growth of the microorganism (Pseudomonas putida; BIT 60 ppm, 48 h): −
- growth of the microorganism (Pseudomonas putida; BIT 70 ppm, 48 h): −
- growth of the microorganism (Pseudomonas putida; BIT 80 ppm, 48 h): −
- MIC at BIT concentration Qa (Pseudomonas putida; [2]): 60 ppm
- MIC value (Pseudomonas putida; used alone, 48 h at 25° C.): 60 ppm
- MIC at Total concentration BIT + MIT Qa + Qb (Penicillium funiculosum; 96 h): 200 ppm
- Qa/QA (Penicillium funiculosum; 96 h): 1.00
- Synergy index Qa/QA + Qb/QB (Penicillium funiculosum; 96 h): 1.00
- growth of the microorganism (Penicillium funiculosum; BIT 10 ppm, 96 h): +
- growth of the microorganism (Penicillium funiculosum; BIT 15 ppm, 96 h): +
- growth of the microorganism (Penicillium funiculosum; BIT 20 ppm, 96 h): +
- growth of the microorganism (Penicillium funiculosum; BIT 30 ppm, 96 h): +
- growth of the microorganism (Penicillium funiculosum; BIT 40 ppm, 96 h): −
- growth of the microorganism (Penicillium funiculosum; BIT 50 ppm, 96 h): −
- growth of the microorganism (Penicillium funiculosum; BIT 75 ppm, 96 h): −
- MIC at BIT concentration Qa (Penicillium funiculosum; [3]): 200 ppm
- MIC value (Penicillium funiculosum; used alone, 96 h at 25° C.): 40 ppm
